Assay results as given in paper PMC6689431 (Biochimica et biophysica acta. Biomembranes, 2019).

Key:
[1] = Fluorescence intensity of TAMRA-labeled peptides at different pH / buffers; assay type: physicochemical; details: 0.2 µM peptide; for fluorescence intensity in Tris buffer pH 8: 50 mM Tris pH 8, λex 544/λem 590 nm, mean ± SD
[2] = Fluorescence intensity of TAMRA-labeled peptides with detergents; assay type: physicochemical; details: 0.2 µM peptide, 50 mM Tris pH 8 + 0.1% (w/v) SDS, no cells, λex 544/λem 590 nm

Substance	decrease of fluorescence intensity, citric acid versus Tris buffer, both pH 8 [1] [%]	fluorescence intensity in Tris buffer pH 8 [1]	increase of fluorescence intensity in Tris+SDS compared to Tris buffer alone [2] [×]
^*-GALFLGWLGAAGSTMGAWSQPKKKRKV-ANSRWPTSII [*MPG-iCAL36]	36	68,132 ± 5,731	7
^*-GRKKRRQRRRPPQ-ANSRWPTSII [*Tat-iCAL36]		103,693 ± 2,848	
^*-LLRLLRWWWRLLRLL-ANSRWPTSII [*WRAP5-iCAL36]			15
^*-RLWRLLWRLWRRLWRLLR-ANSRWPTSII [*C6M1-iCAL36]			9
